# Key:
# 1α-hydroxylase = assay: Experiment 3: 1-hydroxylase in renal mitochondria; type: in vivo, rat; details: for Renal mitochondria 1a-hydroxylase: 6 weeks
# Procedure: (§1) Male, Wistar rats were obtained at 120-130 g, and placed on a 0.01% calcium, 0.7% phosphate diet that was vitamin D deficient (Teklad Test Diets, Madison, WI) this was for one week to help deplete vitamin D stores. For the next three weeks the rats were fed the vitamin D-deficient diet, but with normal, 0.5%, calcium. Starting with these 3 weeks, the rats were divided into four vitamin D3 -treatment groups, initially, nine rats per group: group a) supplemented once weekly with 0.6 μg vitamin D3 (average dose, 0.08 μg/day); group b) supplemented once every second day with vitamin D3 to provide 2 nmol/day, i.e., each dose was 4 nmol of vitamin D3; group c) supplemented once every second day with vitamin D3 to provide 8 μg/day. The preceding groups all received the vitamin D3 through an infant-feeding tube inserted through the mouth into the stomach. One group, d), received its vitamin D3 in the ethanol applied onto a shaved 2 cm×2 cm patch of skin on the back, this was done every second day to provide vitamin D3 at 8 μg/day. The volume of each dose of vitamin D3 given was adjusted so that the stated doses are per 250 g body weight. Over a second 3-week period while maintaining the described vitamin D3 dosing regimens, diet calcium content was changed weekly and blood sampling was started (that is, changes in calcium and sampling was from weeks 4 to 6, inclusive, of receiving the appropriate vitamin D3 supplement). Diet calcium was first dropped to 0.01% then raised to 1.5% and finally dropped again to 0.01%. For each week of dietary calcium manipulation, blood was obtained at day zero (the day of but just prior to the change in calcium), and days 1, 3, and 7 after the change. During the first week, 0.5 mL of blood was taken on the first two of these days and anticoagulated with heparin, the cells were isolated and resuspended in normal rat plasma and reinjected into the femoral vein. […] For the subsequent samplings, only 0.2-0.3 mL of blood was taken by bleeding from the tail into precalibrated microcentrifuge tubes. In this way, the bleeds prior to sacrifice removed a net total of less than 2 mL of blood, that is, less than or equal to 10% of the blood volume. Samples of daytime urine was collected into microfuge tubes that were fastened to the cones of metabolic collection funnels designed to hang under the wire cages. The cages and cones were rinsed with 0.1 mol/L hydrochloric acid prior to each collection. To eliminate contamination of the urine with diet, stool or water, the rats were placed into these separate cages only during the urine-collection period, until about 1 mL urine was present in the microfuge tube, this was typically within 5 min to one hour.
# Biochemical measurements. 1,25(OH)2 D3 in serum was measured by calf-thymus receptor-binding assay after initial purification of 1,25(OH)2 D3 with C18-OH cartridges (5). For the serum volumes that were minimal, serum was measured out in 50 μL increments, and the final result was adjusted for the volume of sample analyzed. To measure 1α-hydroxylase in renal mitochondria, the incubation was as described previously, except the substrate was 20 μmol/L nonradioactive 25(OH)D3. The assay was stopped by addition of 2.5 mL methanol. To monitor recovery of 1,25 (OH)2 D3, 2000 cpm of [^3 H]--1,25(OH)2 D3 were added in 50 μL ethanol prior to further extraction with two additions of 1.25 mL methylene chloride. The methylene chloride layer was taken and evaporated to dryness, redissolved in hexane, isopropanol, methanol (90:9: 1) for purification by HPLC, Zorbax-Sil column. The material eluting as 1,25(OH)2 D3 was evaporated and redissolved in acetonitrile: water for further purification with C18-OH cartridges and quantitation by thymus receptor assay, as described for serum. Renal 24-hydroxylase was measured by incubating mitochondria with [^3 H]-25(OH)D3 as substrate (Vieth and Fraser, J Biol Chem. 254:12455-12460;1979). […]
# [1] = Experiment 3: serum calcium, phosphate, alkaline phosphatase and body weight after 6 weeks; type: in vivo, Male Wistar rats; details: for Serum Alkaline phosphatase: 6 weeks
# Procedure: as §1, with “hour. […]” for “hour.”
# [2] = Experiment 4: urinary calcium to creatinine ratio after gastric or dermal vitamin D3; type: in vivo, rats
# Procedure: Each point represents the mean ±SEM of 7 normal, 250-g rats.
# Toxicity: Short-term responses to increasing doses of vitamin D3 given dermally or by gastric tube.
# To compare the efficacy of increasing doses of vitamin D3 in the short term. A fatal oral vitamin D3 dose is 14 days of 2600 μg/day (Sheppard RM and DeLuca HF, Arch Biochem Biophys 1980; 202: 43-55). The present experiment was designed to compare effects of doses up to this level, given by gastric tube or dermally.
smiles,measurement,setting,value
C=C1CC[C@H](O)C/C1=C/C=C1\CCC[C@]2(C)[C@@H]([C@H](C)CCCC(C)C)CC[C@@H]12 [vitamin D3],difference between the two routes in activities of renal enzymes (1-hydroxylase),1α-hydroxylase; 20 nmol/250 g/day,no significant difference between the two routes
same,Renal mitochondria 1a-hydroxylase,1α-hydroxylase; 0.08 μg/day diet,1052 fmol/mg/mi
same,Renal mitochondria 1a-hydroxylase,1α-hydroxylase; 0.8 μg/day G1 (gastric),993 fmol/mg/mi
same,Renal mitochondria 1a-hydroxylase,1α-hydroxylase; 8 μg/day G1 (gastric),539 fmol/mg/mi
same,Renal mitochondria 1a-hydroxylase,1α-hydroxylase; 8 μg/day dermal,630 fmol/mg/mi
same,1-hydroxylase in kidney,"1α-hydroxylase; 8 μg/day, gastric and dermal, vs groups with less vitamin D3",suppressed 1-hydroxylase in kidney
same,Serum Alkaline phosphatase,[1]; 0.08 μg/day diet,119 U/L
same,Serum Alkaline phosphatase,[1]; 0.8 μg/day G1 (gastric),151 U/L
same,Serum Alkaline phosphatase,[1]; 8 μg/day G1 (gastric),147 U/L
same,Serum Alkaline phosphatase,[1]; 8 μg/day dermal,152 U/L
same,body weight difference between groups,[1]; end of experiment 3,no weight differences between the groups
same,increase in calcium in the urine,[2]; highest dermal dose,2.5 -fold
same,increase in calcium in the urine,[2]; highest gastric dose,6 -fold
